PMC4635624, “In vitro and in vivo single-agent efficacy of checkpoint kinase inhibition in acute lymphoblastic leukemia” (Journal of Hematology & Oncology, 2015)
“And” between values parts separate entries of the source, which are not always exact repeats. Equal entries are not always repeated. “Also recorded” adds a separate entry of the source. Where two headings read alike, the source gives them in different places.

Assays:
RPMI-8402 (T-ALL) cells = test: Cell viability assay (WST-1); type: cell-based, human; settings: RPMI-8402, 24 h exposure, p53 mutated
Procedure: (§1) B-/T-ALL cell lines were incubated with increasing concentrations of drug (5–1000 nM) for 24 and 48 h.
(§2) In order to assess the cell viability after treatment with PF-00477736 (Pfizer), ALL cell lines were seeded in 96-well plates at 50,000 cell/100 μl/well with increasing concentrations of drug (0.005–2 μM) for 24 and 48 h and incubated at 37 °C. Cell viability was assessed by adding WST-1 reagent (Roche Applied Science, Basel, Switzerland) to the culture medium at 1:10 dilution. Cells were incubated at 37 °C, and the optical density was measured by microplate ELISA reader at λ = 450 after 3 h. The amount of the formazan formed directly correlates to the number of metabolically active cells. All viability experiments were performed in triplicates and repeated in least two separated experiments. In ex-vivo primary leukemia cells, the effects on cell viability were assessed by counting viable and non-viable cell numbers by the trypan blue dye exclusion method. Cells were seeded in six-well plates at 500,000 cell/1 ml with increasing concentrations of drug (0.1, 0.5, and 1 μM) for 24 h and incubated at 37 °C. Cellular viability was calculated as a percentage of the viable cells compared to the untreated controls (DMSO 0.1 %).

NALM-6 (B-ALL) cells = test: Cell viability assay (WST-1); type: cell-based, human; settings: NALM-6, 24 h exposure, TP53 wild-type
Procedure: as §1, §2

primary ALL blast cells = test: Ex-vivo viability of primary leukemia cells (trypan blue dye exclusion); type: cell-based, human
Procedure: The efficacy of PF-00477736 was confirmed in primary blast cells from 14 newly diagnosed cases including ten BCR-ABL1-positive (71 %) cases and four BCR-ABL1-negative ALL cases (29 %). Leukemic cells were incubated with increasing concentrations of drug (0.1, 0.5, and 1 μM) for 24 h. […]
as §2, with “The amount of the formazan formed directly correlates to the number of metabolically active cells. All viability experiments were performed in triplicates and repeated in least two separated experiments.” left out, “Cells were seeded in six-well plates at 500,000 cell/1 ml with increasing concentrations of drug (0.1, 0.5, and 1 μM) for 24 h and incubated at 37 °C.” left out

NALM-6 cells = settings: NALM-6 γ-H2A.X positive cells
Procedure: The so-called hyper-γ-H2A.X-positive cells loose the typical foci signal of γ-H2A.X and emit a much higher and diffuse signal of γ-H2A.X positivity.
NALM-6 and BV-173 cells were seeded to poly-D lysine-coated slides, fixed with 4 % PFA (paraformaldehyde), and stained at 37 °C with a mouse anti-H2A.X-Phosphorylated Alexa 647 conjugated antibody (BioLegend). Then, they were treated with DAPI (4.6 diamidino-2-phenylindole; Sigma Aldrich), and the slides were mounted with Mowiol (Calbiochem). Images were acquired with wide field fluorescence microscope Olympus BX61 fully motorized driven by Metamorph software, and the analysis was performed using the freeware ImageJ software.

[1] = test system: mice transplanted with T-ALL (ENU-induced murine leukemia); test: In vivo efficacy in mice transplanted with T-ALL
Procedure: Leukemic mice were generated by the usage of the tumorigenic agent N-ethyl-N-nitrosourea (ENU). […] Leukemic blasts coming from the spleen of leukemic animals were transplanted into C57BL/6Ly5.1-recipient mice. Three days after transplantation, a time sufficient for leukemic blasts to home the bone marrow of the host, we started to treat the animals.
Experiments involving mice were performed in agreement with Italian guidelines and after the approval of the Institutional Review Board of the European Institute of Oncology. Leukemic mice were generated by a single administration of the tumorigenic agent N-ethyl-N-nitrosourea (Sigma, 50 mg/kg intraperitoneally). Spleen cells from leukemic C57BL6/Ly5.2 mice were injected intravenously (2 × 10^6 cells/mouse) into non-irradiated, recipient C57BL6/Ly5.1 mice. PF-0077736 was administered intraperitoneally starting from day 3 after the transplant of leukemic cells. Mice received doses of PF-0077736 (40 mg/kg each dose) every 3 days for four treatments (q3dx4). Kaplan-Meyer rank test was used to compare the survival rate between treated and control mice.

Cn1cc(-c2[nH]c3cc(NC(=O)[C@H](N)C4CCCCC4)cc4c3c2C=NNC4=O)cn1 [PF-00477736]
IC50 (RPMI-8402 (T-ALL) cells): 0.0574 µM
IC50 (NALM-6 (B-ALL) cells): 1.42 µM
IC50 (primary ALL blast cells; primary ALL sample of one patient per table row (ID in c1), class of IC50 at 24 hours, read-out: Sensitivity): 0.5 to 1 µM and 0.1 to 0.5 µM
IC50 (primary ALL blast cells; primary blast cells, 21 % (3/14) of cases, 24 h, read-out: IC50 at 24 h, poor responders): > 1 µM
fold change of mean value intensity of γ-H2A.X, treated vs untreated (NALM-6 cells): 1.4 fold
overall survival vs vehicle ([1]; 40 mg/kg intraperitoneally q3dx4, five treated vs seven control mice, p value =0.0009, listed as PF-0477736): significantly increases the overall survival; also recorded: increases the survival of treated mice
survival of treated animals post transplantation ([1]; 40 mg/kg intraperitoneally q3dx4 from day 3 after transplant, five mice, controls (PBS) die all at day 17): up to 59 days
toxicity for the animals ([1]; 40 mg/kg, q3dx4 schedule, intraperitoneally): seems not to be toxic
